Consider 4 molecules from PMC8874615 (Viruses, 2022).

A short description of data set [1]: Cytotoxicity assay (Cell Counting Kit-8) in PS cells. The settings on record: pig, porcine kidney stable (PS) cells. For orientation: Tetrazolium assays rely on reduction of a dye to a coloured formazan, in cell work by metabolically active cells.
The nature of data set [2]: Cytotoxicity assay (Cell Counting Kit-8) in Vero cells. The settings on record: African green monkey.
A short description of data set [3]: Cytotoxicity assay (Cell Counting Kit-8) in HBCA cells. Particulars: human, human brain cortical astrocytes (HBCA).
Data set [4] can be described thus: Cytotoxicity assay (Cell Counting Kit-8) in UKF-NB-4 cells. Particulars: human, UKF-NB-4 neuroblastoma cells.
The test system of data set [5] is TBEV, strain Hypr.
Data set [6] in a line: Cytotoxicity assay (Cell Counting Kit-8) in Huh-7 cells. Particulars: human, Huh-7 hepatocarcinoma cells.
The subject of data set [7] is TBEV, strain Hypr. As to the kind of experiment: microbe, parasite or virus in culture. The settings on record: Tick-borne encephalitis virus, Vero.
For another data set, the system named is ZIKV strain Paraiba_01. As to the kind of experiment: Mechanistic plaque number assay, ZIKV in Vero cells. The format is cell-based, Zika virus. Particulars: diphyllin 1 100 µM, bafilomycin A1 100 nM.
Data set [8] concerns WNV, strain Eg-101. Put plainly: microbe, parasite or virus in culture. Particulars: West Nile virus, Vero.
Data set [9] deals with ZIKV, strain Paraiba_01. Put plainly: microbe, parasite or virus in culture. Particulars: Zika virus, Vero.
Data set [10] is described as follows: Cytotoxicity assay (Cell Counting Kit-8) in BHK-21 cells. The settings on record: hamster, BHK-21 cells (baby hamster kidney).
Data set [11] deals with RABV, strain CVS-11.
For data set [12], the system named is RVFV, strain H13/96.
Data set [13] concerns HSV-1, strain MacIntyre. As to the kind of experiment: microbe, parasite or virus in culture. The settings on record: Human alphaherpesvirus 1, Vero.
Data set [14] deals with HSV-1, strain MacIntyre.
The nature of data set [15]: Light sensitivity of the prepared sample. It counts as physicochemical. The settings on record: solid sample; surface coloration, detrimental to antivirus activities.
For data set [16], the system named is WNV, strain Eg-101.
In a further data set the test system is HSV-1 strain MacIntyre. As to the kind of experiment: Mechanistic plaque number assay, HSV-1 in Vero cells. The format is cell-based, herpes simplex virus type 1. The settings on record: diphyllin 1 100 µM, bafilomycin A1 100 nM.
The subject of data set [17] is Mardin-Darby canine kidney cells (MDCK). The settings on record: cited from earlier work.
Data set [18] relates to human lung carcinoma cells (A549). The settings on record: cited from earlier work.
Data set [19] deals with ZIKV, strain Paraiba_01.
Data set [20] has as its system RVFV, strain H13/96. Put plainly: microbe, parasite or virus in culture. Particulars: Rift Valley fever virus, Vero.
In data set [21] the test system is rabbit lung cells (RL-33). Particulars: RL-33 cells; cited from earlier work.
In data set [22] the test system is feline macrophage-like cells (fcwf-4). Particulars: fcwf-4 cells; cited from earlier work.
The subject of data set [23] is endosomal acidification in Vero cells. As to the kind of experiment: Analysis of endosomal acidification with acridine orange. It counts as cell-based, African Green Monkey. Particulars: 20 min.
Data set [24] deals with RABV, strain CVS-11. Put plainly: microbe, parasite or virus in culture. Particulars: Lyssavirus rabies, BHK-21, 72 h.
[25] abbreviates: 3 h p.i. treatment then washing, plaques counted at 120 h.
Where [26] appears, read: compound kept for the whole 120 h p.i.
Setting [27] is: 3 h p.i. treatment then washing, plaques counted at 72 h.
Where [28] appears, read: compound kept for the whole 72 h p.i.

pEC50: −log10 of the molar value. ≈ marks a conversion by molar mass, not a printed value. Like-named read-outs stand apart in the source and are kept apart here.

`COc1cc2c(O[C@@H]3O[C@H](CO)[C@@H](O)[C@H](O)[C@H]3O)c3c(c(-c4ccc5c(c4)OCO5)c2cc1OC)C(=O)OC3` [Cleistanthin B 8, diphyllin-4-β-D-glucopyranoside, reference compound]: the CC50 at 48 h was 78.9 µM in [1]; > 100 µM in data set [2]; 2080 nM in data set [3]; 6.17 µM in data set [4]; 3960 nM in data set [6]. The CC50 at 72 h in [2] was > 100 µM. In [2], this molecule yielded a CC50 at 144 h of 80.7 µM. Further, the “SI (CC50/EC50)” value with TBEV, strain Hypr [5] was >18.08. The same molecule showed a pEC50 in the data set on TBEV, strain Hypr [7] of 5.26.
Consider `COc1cc2c(O)c3c(c(-c4ccc5c(c4)OCO5)c2cc1OC)C(=O)OC3` [Diphyllin 1, 9-(3‣,4‣-methylenedioxyphenyl)-4-hydroxy-6,7-dimethoxynaphtho[2,3-c]furan-1(3H)-one], for which the “susceptibility of ZIKV (plaque number)” value with ZIKV strain Paraiba_01 (setting [25]) and in the data set with ZIKV strain Paraiba_01 (setting [26]) was “susceptible” in each case. The pEC50 in the data set on WNV, strain Eg-101 [8] is 6.11; with ZIKV, strain Paraiba_01 [9], 6.27; in the data set with HSV-1, strain MacIntyre [13], 6.23; in the data set on RVFV, strain H13/96 [20], 6.34; with RABV, strain CVS-11 [24], 5.20; in the data set with TBEV, strain Hypr [7], 6.07. The molecule further had a pEC50 in the data set with TBEV, strain Hypr [7] (48 h) of 5.98. Moreover, the CC50 at 72 h in data set [10] and in [2] was > 100 µM throughout. Besides, the “SI (CC50/EC50)” value with RABV, strain CVS-11 [11] was >15.80; in the data set with RVFV, strain H13/96 [12], >217.39; in the data set on HSV-1, strain MacIntyre [14], >169.49; with WNV, strain Eg-101 [16], >128.20; with TBEV, strain Hypr [5], >117.64; in the data set with ZIKV, strain Paraiba_01 [19] it was >185.19. Besides, in the data set on RABV, strain CVS-11 [11], the “drop in RABV RNA copies/µL compared with RABV-infected control cells” value is reported as 10^2. Besides, the CC50 at 48 h in data set [1] was 92.4 µM; in data set [2] it was > 100 µM; in data set [3] it was 3390 nM; in data set [4], 11.1 µM; in [6], 1890 nM. Besides, the CC50 at 144 h in data set [2] stood at 18.2 µM. Moreover, in the data set with HSV-1, strain MacIntyre [14], the “concentration at which complete HSV-1 suppression starts” value is ≥ 2.5 µM. The light sensitivity entry in data set [15] was “rather light-sensitive”. Moreover, the “susceptibility of HSV-1 (plaque number)” value in the data set on HSV-1 strain MacIntyre (setting [27]) is listed as “not susceptible”; in the data set with HSV-1 strain MacIntyre (setting [28]), “highly susceptible”. Moreover, the CC50 in [17] is 3.48 µM; in data set [18], 24 µM; in data set [21], 63 µg/mL (≈ 166 µM); in data set [22], 5.99 µM. The “red fluorescence intensity of acidic endosomes (acridine orange)” value in data set [23] (100 µM, versus DMSO control) is “much reduced”.
For the molecule `COc1cc2c(O)c3c(c(-c4ccc5c(c4)OCO5)c2cc1OC)C(=O)OC3` [commercial product, diphyllin], in the data set on TBEV, strain Hypr [5], the pEC50 is 5.91.
In the case of `CO/C1=C\C(C)=C\[C@@H](C)[C@@H](O)[C@@H](C)C/C(C)=C/C=C/[C@H](OC)[C@@H]([C@@H](C)[C@@H](O)[C@H](C)[C@@]2(O)C[C@@H](O)[C@H](C)[C@@H](C(C)C)O2)OC1=O` [bafilomycin A1, reference compound], the “susceptibility of ZIKV (plaque number)” value in the data set on ZIKV strain Paraiba_01 (setting [25]) and in the data set with ZIKV strain Paraiba_01 (setting [26]) was “susceptible” each time. Also, the pEC50 in the data set on ZIKV, strain Paraiba_01 [9] (48 h) was 8.61; with HSV-1, strain MacIntyre [13] (48 h), < 7.00. Besides, the viability at 48 h, 0.15 µM in [2] is ~80%. Also, the “effect on HSV-1 virus titers” value in the data set on HSV-1, strain MacIntyre [14] is given as “no effect”. The “susceptibility of HSV-1 (plaque number)” value in the data set on HSV-1 strain MacIntyre (setting [27]) and in the data set on HSV-1 strain MacIntyre (setting [28]) was “not susceptible” throughout. The “red fluorescence intensity of acidic endosomes (acridine orange)” value in data set [23] (100 nM, positive control) is listed as “all the more obvious”.

Usually CC50 stands for the concentration giving 50% cytotoxicity. By pEC50 is commonly meant the EC50 on a negative log10 scale, so that one unit is a factor of ten. For orientation: viability means the share of living cells, or the viability signal relative to a control.
